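Each compound was tested at five concentrations against cells in 96-well plates for 48 hours. GI50 is the concentration that inhibits growth by half. TGI denotes the concentration required for complete inhibition of growth.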 Where a SMILES comes first, the peptide text is derived from it. The star is where a group is joined. Palmitoyl = CCCCCCCCCCCCCCCC(=O)*
How the values were obtained:
Assay in all cases: growth of human tumour cells (NCI), 48 h
[1] = tested on: HT29 colon
[2] = tested on: NCI-H460 lung
[3] = tested on: SF-539 CNS
[4] = tested on: CCRF-CEM leukemia
[5] = tested on: K-562 leukemia
[6] = tested on: SK-MEL-2 melanoma
[7] = tested on: HCC-2998 colon
[8] = tested on: A549 NSCLC
[9] = tested on: SF-268 CNS
[10] = tested on: UACC-62 melanoma

Q: For `Cc1c(-c2ccccc2)[nH]c2cc(Cl)ccc2c1=O`, which TGI [1] is on record?
A: > 100 µM

Q: And the TGI [2]?
A: > 100 µM

Q: And the TGI [3]?
A: > 100 µM

Q: What about the TGI [4] of the same compound?
A: > 100 µM

Q: What about the TGI [5] of the same compound?
A: > 100 µM

Q: And the TGI [6]?
A: > 100 µM

Q: And the TGI [7]?
A: > 100 µM

Q: And the TGI [8]?
A: > 100 µM

Q: And the TGI [9]?
A: > 100 µM

Q: What about the TGI [10] of the same compound?
A: > 100 µM

Q: Which results are given for `Cn1c(-c2ccccc2)cc(-c2cccs2)c1-c1cccs1`?
A: TGI [1]: > 100 µM; TGI [2]: > 100 µM; TGI [3]: > 100 µM; TGI [4]: > 100 µM; TGI [5]: > 100 µM; TGI [6]: > 100 µM; TGI [7]: > 100 µM; TGI [8]: > 100 µM; TGI [9]: > 100 µM; TGI [10]: > 100 µM

Q: What does the source list for `c1ccc(-c2nc(N3CCNCC3)c3oc(-c4ccccc4)nc3n2)cc1`?
A: GI50 [2]: 1.75 µM; TGI [2]: 3.38 µM; GI50 [3]: 1.76 µM; TGI [3]: 3.17 µM; GI50 [4]: 1.63 µM; TGI [4]: 4.08 µM; GI50 [5]: 0.428 µM; TGI [5]: 2.35 µM; GI50 [6]: 2.31 µM; TGI [6]: 5.42 µM; GI50 [7]: 1.58 µM; TGI [7]: 3.05 µM; GI50 [9]: 1.73 µM; TGI [9]: 3.46 µM; GI50 [10]: 1.72 µM; TGI [10]: 3.11 µM

Q: What does the source list for `CCCC1CCC(=C2C(=O)CCC2=O)O1` (configuration not stated)?
A: TGI [1]: > 100 µM; TGI [2]: > 100 µM; TGI [3]: > 100 µM; TGI [4]: > 100 µM; TGI [5]: > 100 µM; TGI [6]: > 100 µM; TGI [7]: > 100 µM; TGI [8]: > 100 µM; TGI [9]: > 100 µM; TGI [10]: > 100 µM

Q: Which GI50 [1] does the source give for `C/C(=N/N=C(\[O-])c1ccncc1)C(F)(F)F.C/C(=N\N=C(/[O-])c1ccncc1)C(F)(F)F.[Ni+2]` here?
A: > 1 µM

Q: What about the TGI [1] of the same compound?
A: > 1 µM

Q: What about the GI50 [4] of the same compound?
A: > 1 µM

Q: What about the TGI [4] of the same compound?
A: > 1 µM

Q: What about the GI50 [5] of the same compound?
A: > 1 µM

Q: What about the TGI [5] of the same compound?
A: > 1 µM

Q: What about the GI50 [6] of the same compound?
A: > 1 µM

Q: What about the GI50 [7] of the same compound?
A: > 1 µM

Q: And the TGI [7]?
A: > 1 µM

Q: What about the GI50 [9] of the same compound?
A: > 1 µM

Q: And the TGI [9]?
A: > 1 µM

Q: For `Nc1nc(Nc2ccccc2)c2[nH]cnc2n1`, which TGI [1] is on record?
A: > 100 µM

Q: What about the TGI [3] of the same compound?
A: > 100 µM

Q: What about the TGI [4] of the same compound?
A: > 100 µM

Q: What about the TGI [5] of the same compound?
A: > 100 µM

Q: What about the TGI [6] of the same compound?
A: > 100 µM

Q: What about the TGI [7] of the same compound?
A: > 100 µM

Q: What about the TGI [8] of the same compound?
A: > 100 µM

Q: What about the TGI [10] of the same compound?
A: > 100 µM

Q: How did the TGI [1] turn out when `CON(C)c1nc(N(C)OC)nc(N(C)OC)n1` was run?
A: > 10 µM

Q: And the TGI [2]?
A: > 10 µM

Q: What about the TGI [3] of the same compound?
A: > 10 µM

Q: And the TGI [4]?
A: > 10 µM

Q: What about the TGI [5] of the same compound?
A: > 10 µM

Q: And the TGI [6]?
A: > 10 µM

Q: What about the TGI [7] of the same compound?
A: > 10 µM

Q: What about the TGI [8] of the same compound?
A: > 10 µM

Q: And the TGI [9]?
A: > 10 µM

Q: What about the TGI [10] of the same compound?
A: > 10 µM

Q: For `COc1cc(C(C)O)c[n+](Cc2ccccc2)c1` (configuration not stated), which TGI [1] is on record?
A: > 100 µM

Q: What about the TGI [2] of the same compound?
A: > 100 µM

Q: What about the TGI [3] of the same compound?
A: > 100 µM

Q: What about the TGI [4] of the same compound?
A: > 100 µM

Q: And the TGI [5]?
A: > 100 µM

Q: And the TGI [6]?
A: > 100 µM

Q: And the TGI [7]?
A: > 100 µM

Q: What about the TGI [8] of the same compound?
A: > 100 µM

Q: And the TGI [9]?
A: > 100 µM

Q: And the TGI [10]?
A: > 100 µM

Q: What does the source list for `CCOC(=O)c1c(C)n(-c2ccc(Cl)cc2)c2c1cc(O)c1[nH]c3c(c12)CCCC3`?
A: TGI [1]: > 100 µM; TGI [2]: > 100 µM; TGI [3]: > 100 µM; TGI [4]: > 100 µM; TGI [5]: > 100 µM; TGI [6]: 92.9 µM; TGI [7]: > 100 µM; TGI [8]: > 100 µM; TGI [9]: > 100 µM; TGI [10]: > 100 µM

Q: For `Nc1[nH]c(=O)nc2c1cnn2C1CCCCO1` (configuration not stated), which TGI [1] is on record?
A: > 100 µM

Q: And the TGI [2]?
A: > 100 µM

Q: And the TGI [3]?
A: > 100 µM

Q: And the TGI [4]?
A: > 100 µM

Q: What about the TGI [5] of the same compound?
A: > 100 µM

Q: And the TGI [6]?
A: > 100 µM

Q: What about the TGI [7] of the same compound?
A: > 100 µM

Q: And the TGI [8]?
A: > 100 µM

Q: And the TGI [9]?
A: > 100 µM

Q: Which results are given for `CCCCCCCCCCCCCCCC(=O)N1CCCC1C(=O)NCC(=O)NC(Cc1ccccc1)C(=O)NC(C)C(=O)NC(CO)C(=O)NC(Cc1ccc(O)cc1)C(=O)NC(CCCCN)C(=O)NC(CC(C)C)C(=O)NC(CCCN=C(N)N)C(=O)N1CCCC1C(=O)NCC(N)=O` (configuration not stated) (Palmitoyl-PGFASYKLRPG-NH2; configuration not given here)?
A: GI50 [1]: 16.8 µM; TGI [1]: 30.5 µM; GI50 [2]: 23.5 µM; TGI [2]: 61.4 µM; GI50 [3]: 24 µM; TGI [3]: 61.4 µM; GI50 [4]: 16.5 µM; TGI [4]: 30.1 µM; GI50 [5]: 18.3 µM; TGI [5]: 32.2 µM; GI50 [6]: 34.6 µM; TGI [6]: > 100 µM; GI50 [7]: 13.4 µM; TGI [7]: 28.9 µM; GI50 [8]: 21.3 µM; TGI [8]: 40.8 µM; GI50 [9]: 16.3 µM; TGI [9]: 36 µM

Q: How did the TGI [1] turn out when `O[C@@]12Cc3c([nH]c4ccccc34)[C@@H]3Oc4cccc5c4[C@@]31CCN(CC1CC1)[C@@H]2C5` was run?
A: 29.8 µM

Q: What about the TGI [2] of the same compound?
A: 60.9 µM

Q: What about the TGI [3] of the same compound?
A: 36.3 µM

Q: And the TGI [4]?
A: 29.9 µM

Q: What about the TGI [5] of the same compound?
A: 55.4 µM

Q: And the TGI [6]?
A: 41.5 µM

Q: And the TGI [7]?
A: 31.9 µM

Q: What about the TGI [8] of the same compound?
A: 43.5 µM

Q: What about the TGI [9] of the same compound?
A: 34 µM

Q: What about the TGI [10] of the same compound?
A: 32.3 µM

Q: Which TGI [1] does the source give for `CC(N)Cc1ccc(Cl)c(Cl)c1` (configuration not stated) here?
A: 56.5 µM

Q: And the TGI [2]?
A: 97.1 µM

Q: What about the TGI [3] of the same compound?
A: > 60.2 µM

Q: And the TGI [4]?
A: > 78.1 µM

Q: And the TGI [5]?
A: 44 µM

Q: What about the TGI [6] of the same compound?
A: 37.6 µM

Q: And the TGI [7]?
A: 31.2 µM

Q: And the TGI [8]?
A: > 100 µM

Q: And the TGI [9]?
A: > 100 µM

Q: And the TGI [10]?
A: 50.2 µM

Q: For `CN1C(c2ccccc2)CC(=O)C(N)C1c1ccccc1` (configuration not stated), which TGI [1] is on record?
A: 55.8 µM

Q: And the TGI [2]?
A: 55.6 µM

Q: What about the TGI [3] of the same compound?
A: > 96.5 µM

Q: What about the TGI [4] of the same compound?
A: 66 µM

Q: And the TGI [5]?
A: > 67.6 µM

Q: And the TGI [6]?
A: 41.1 µM

Q: And the TGI [7]?
A: 43.3 µM

Q: And the TGI [8]?
A: > 100 µM

Q: What about the TGI [9] of the same compound?
A: > 100 µM

Q: What about the TGI [10] of the same compound?
A: 81.2 µM

Q: Which TGI [1] does the source give for `CC(C)C(C(=O)O)N1C(=O)c2ccccc2C1=O` (configuration not stated) here?
A: > 100 µM

Q: What about the TGI [2] of the same compound?
A: > 100 µM

Q: And the TGI [4]?
A: > 100 µM

Q: What about the TGI [5] of the same compound?
A: > 100 µM

Q: And the TGI [6]?
A: 0.612 µM

Q: What about the TGI [7] of the same compound?
A: > 100 µM

Q: And the TGI [8]?
A: > 100 µM

Q: And the TGI [9]?
A: > 100 µM

Q: And the TGI [10]?
A: > 100 µM

Q: Which TGI [1] does the source give for `Nc1nc(O)c2ncn([C@H]3CC[C@@H](CO)O3)c2n1` here?
A: > 100 µM

Q: What about the TGI [2] of the same compound?
A: > 100 µM

Q: And the TGI [4]?
A: > 100 µM

Q: And the TGI [5]?
A: > 100 µM

Q: What about the TGI [6] of the same compound?
A: > 100 µM

Q: What about the TGI [10] of the same compound?
A: > 100 µM

Q: `C[N+](C)(C)c1ncnc2c1ncn2C1CC(O)C(CO)O1` (configuration not stated) was tested. Which TGI [1] did it give?
A: > 100 µM

Q: And the TGI [2]?
A: > 100 µM

Q: What about the TGI [3] of the same compound?
A: > 100 µM

Q: And the TGI [4]?
A: > 100 µM

Q: What about the TGI [5] of the same compound?
A: > 100 µM

Q: And the TGI [6]?
A: > 100 µM

Q: What about the TGI [7] of the same compound?
A: > 100 µM

Q: And the TGI [8]?
A: > 100 µM

Q: And the TGI [9]?
A: > 100 µM

Q: And the TGI [10]?
A: > 100 µM

Reference: PubChem BioAssay (NCI)
